Measurements published in patent US20250346564A1 (ARase Therapeutics Inc., priority 2022, published 2025).

How the values were obtained:
PARG [1] = biological target: T1, PARG (Homo sapiens (Human), UniProt Q86W56); assay: PARG TFMU assay (4-(trifluoromethyl)umbelliferone substrate); type: biochemical; conditions: PARG 250 pM or 2 nM, 10-point dose response
Description: Example C. Inhibition of PARG TEMU Assay
The ability of the compounds of the Examples to inhibit PARG activity in 4. (trifluoromethyl)umbelliferone (TFMU) assay was determined as described below. PARG inhibitors were added into 384 well plate for a 10-point dose response curve at 1:3 dilutions. TFMU PARG substrate and PARG (250 pM or 2 nM) were then added to the plate to initiate enzymatic reaction. After incubation with the reagent, […] was read. IC50 values were calculated using set control points for 100% inhibition as no enzyme and 0% inhibition 250 pM or 2 nM of PARG enzyme.

PARG [2] = biological target: T1, PARG; assay: PARG target engagement cellular assay (PAR polymer immunostaining after cisplatin); type: cell-based; conditions: HCC1806 cells treated with cisplatin, then compound titration for 1 h; PAR polymer antibody readout
Description: Example a. Inhibition of PARG Target Engagement Cellular Assay
The ability of the compounds of the Examples to inhibit PARG was determined as described below. After treating HCC1806 cells with cisplatin, followed by PARG inhibitor compound titration for 1 h, the cells were fixed in formaldehyde. The cells were permeabilized, blocked, and incubated with antibody against poly (ADP) ribose (PAR) polymer. The cells were then washed and incubated with IR 800 conjugated secondary antibody together with TO-PRO3 iodide nuclear stain. After washing, images of the cells were captured and analyzed on Odyssey CLx instrument and analyzed using LI-COR image studio software.

T1 sequence (Q86W56 whole entry): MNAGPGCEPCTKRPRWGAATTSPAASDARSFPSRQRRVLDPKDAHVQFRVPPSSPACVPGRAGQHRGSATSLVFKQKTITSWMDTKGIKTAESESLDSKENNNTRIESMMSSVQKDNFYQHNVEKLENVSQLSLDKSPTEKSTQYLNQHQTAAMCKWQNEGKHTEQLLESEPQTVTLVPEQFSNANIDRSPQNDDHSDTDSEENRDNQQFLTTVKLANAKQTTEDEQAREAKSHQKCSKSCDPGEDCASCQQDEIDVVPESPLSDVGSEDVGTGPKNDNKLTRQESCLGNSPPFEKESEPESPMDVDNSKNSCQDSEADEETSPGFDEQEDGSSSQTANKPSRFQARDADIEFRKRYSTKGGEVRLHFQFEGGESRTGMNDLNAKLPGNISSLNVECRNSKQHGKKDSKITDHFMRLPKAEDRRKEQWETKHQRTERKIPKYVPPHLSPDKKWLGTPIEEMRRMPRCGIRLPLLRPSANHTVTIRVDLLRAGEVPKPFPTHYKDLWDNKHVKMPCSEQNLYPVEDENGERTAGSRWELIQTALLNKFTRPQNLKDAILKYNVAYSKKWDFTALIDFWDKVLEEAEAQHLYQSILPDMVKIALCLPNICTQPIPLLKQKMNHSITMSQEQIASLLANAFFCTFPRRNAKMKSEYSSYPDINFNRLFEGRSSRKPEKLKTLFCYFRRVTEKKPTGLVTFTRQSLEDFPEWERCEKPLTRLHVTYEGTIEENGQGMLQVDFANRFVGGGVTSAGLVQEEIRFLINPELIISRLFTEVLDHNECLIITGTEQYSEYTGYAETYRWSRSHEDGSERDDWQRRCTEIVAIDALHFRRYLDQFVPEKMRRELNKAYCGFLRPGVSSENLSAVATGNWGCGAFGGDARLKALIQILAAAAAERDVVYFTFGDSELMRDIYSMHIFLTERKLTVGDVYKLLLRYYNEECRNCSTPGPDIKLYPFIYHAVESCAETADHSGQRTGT

| Structure (SMILES) | IC50 (PARG [1]) [nM] | IC50 (PARG [2]) [µM] |
| --- | --- | --- |
| CC(C)C(=O)N1CCN(c2cc(S(=O)(=O)NC3(C)COC3)cc3c2cnn3-c2nnc(C(F)F)s2)CC1 [Example 6, 1-[5-(difluoromethyl)-1,3,4-thiadiazol-2-yl]-N-(3-methyloxetan-3-yl)-4-[4-(2-methylpropanoyl)piperazin-1-yl]indazole-6-sulfonamide] | < 50 | < 10 |
| CCn1c(=O)c2cc(S(=O)(=O)NC3(C)CCC3)ccc2n(CC)c1=O [Example 7, 1,3-diethyl-N-(1-methylcyclobutyl)-2,4-dioxoquinazoline-6-sulfonamide] | ≥ 5000 | > 100 |
| COC(=O)/C=C/Cn1c(=O)[nH]c2ccc(S(=O)(=O)NC3(C)COC3)cc2c1=O [Example 9, methyl (2E)-4-{6-[(3-methyloxetan-3-yl)sulfamoyl]-2,4-dioxo-1H-quinazolin-3-yl}but-2-enoate] | 500 to 5000 | 10 to 100 |
| CCn1c(=O)c2cc(S(=O)(=O)NC3(C#N)COC3)ccc2n(CC)c1=O [Example 10, N-(3-cyanooxetan-3-yl)-1,3-diethyl-2,4-dioxoquinazoline-6-sulfonamide] | 500 to 5000 | 10 to 100 |
| COC(=O)/C=C/Cn1c(=O)c2cc(S(=O)(=O)NC3(C)COC3)ccc2n(CC2COC2)c1=O [Example 11, methyl (2E)-4-{6-[(3-methyloxetan-3-yl)sulfamoyl]-1-(oxetan-3-ylmethyl)-2,4-dioxoquinazolin-3-yl}but-2-enoate] | 500 to 5000 | < 10 |
| COC(=O)/C=C/CCn1c(=O)[nH]c2ccc(S(=O)(=O)NC3(C)COC3)cc2c1=O [Example 12, methyl (E)-5-(6-(N-(3-methyloxetan-3-yl)sulfamoyl)-2,4-dioxo-1,4-dihydroquinazolin-3(2H)-yl)pent-2-enoate] | 500 to 5000 | > 100 |
| Cc1ncc(Cn2c(=O)c3cc(S(=O)(=O)NC4(C)COC4)ccc3n(Cc3sc(C)nc3C)c2=O)s1 [Example 14, 1-((2,4-dimethylthiazol-5-yl)methyl)-N-(3-methyloxetan-3-yl)-3-((2-methylthiazol-5-yl)methyl)-2,4-dioxo-1,2,3,4-tetrahydroquinazoline-6-sulfonamide] | < 50 | 10 to 100 |
| CCn1c(=O)c2cc(S(=O)(=O)NC3(C(F)F)COC3)ccc2n(CC)c1=O [Example 18, N-(3-(difluoromethyl)oxetan-3-yl)-1,3-diethyl-2,4-dioxo-1,2,3,4-tetrahydroquinazoline-6-sulfonamide] | 500 to 5000 | > 100 |
| CNC(=O)/C=C/Cn1c(=O)[nH]c2ccc(S(=O)(=O)NC3(C)COC3)cc2c1=O [Example 19, (E)-N-methyl-4-(6-(N-(3-methyloxetan-3-yl)sulfamoyl)-2,4-dioxo-1,4-dihydroquinazolin-3(2H)-yl) but-2-enamide] | 500 to 5000 | > 100 |
| CCn1c(=O)c2cc(S(=O)(=O)NC3(CF)COC3)ccc2n(CC)c1=O [Example 20, 1,3-diethyl-N-(3-(fluoromethyl)oxetan-3-yl)-2,4-dioxo-1,2,3,4-tetrahydroquinazoline-6-sulfonamide] | 50 to 500 | 10 to 100 |
